# Assay results as given in patent US10508113B2, “Inhibitors of tyrosine kinase 2 mediated signaling” (AbbVie Inc., priority 2018, dated 2019).
# Molecular target: T1, Jak1 (Homo sapiens, UniProt P23458)
# T1 construct: endogenous in cells; host or cells: TF1 cells
# Test: Jak1 (PSTAT3 TF1) alpha screen assay: inhibition of IL-6 induced phosphorylation of STAT3 in TF1 cells
# Assay type: cell-based
# Conditions: for EC50: IL-6 induced pSTAT3, TF1 cells; for Tyk2 selectivity over Jak1: calculated from tabulated EC50 data (Jak1 / Tyk2)
# Outline: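 IL-6-starved TF1 cells were preincubated 30 min at 37 °C with compound (top final 25 μM, 8-point 1:5 series), then stimulated with IL-6 (100 ng/mL final) for 30 min at 37 °C. Lysates were read for pSTAT3 (Tyr705) by AlphaScreen SureFire. EC50 from percent-activity dose-response curves.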
# T1 sequence (P23458 whole entry): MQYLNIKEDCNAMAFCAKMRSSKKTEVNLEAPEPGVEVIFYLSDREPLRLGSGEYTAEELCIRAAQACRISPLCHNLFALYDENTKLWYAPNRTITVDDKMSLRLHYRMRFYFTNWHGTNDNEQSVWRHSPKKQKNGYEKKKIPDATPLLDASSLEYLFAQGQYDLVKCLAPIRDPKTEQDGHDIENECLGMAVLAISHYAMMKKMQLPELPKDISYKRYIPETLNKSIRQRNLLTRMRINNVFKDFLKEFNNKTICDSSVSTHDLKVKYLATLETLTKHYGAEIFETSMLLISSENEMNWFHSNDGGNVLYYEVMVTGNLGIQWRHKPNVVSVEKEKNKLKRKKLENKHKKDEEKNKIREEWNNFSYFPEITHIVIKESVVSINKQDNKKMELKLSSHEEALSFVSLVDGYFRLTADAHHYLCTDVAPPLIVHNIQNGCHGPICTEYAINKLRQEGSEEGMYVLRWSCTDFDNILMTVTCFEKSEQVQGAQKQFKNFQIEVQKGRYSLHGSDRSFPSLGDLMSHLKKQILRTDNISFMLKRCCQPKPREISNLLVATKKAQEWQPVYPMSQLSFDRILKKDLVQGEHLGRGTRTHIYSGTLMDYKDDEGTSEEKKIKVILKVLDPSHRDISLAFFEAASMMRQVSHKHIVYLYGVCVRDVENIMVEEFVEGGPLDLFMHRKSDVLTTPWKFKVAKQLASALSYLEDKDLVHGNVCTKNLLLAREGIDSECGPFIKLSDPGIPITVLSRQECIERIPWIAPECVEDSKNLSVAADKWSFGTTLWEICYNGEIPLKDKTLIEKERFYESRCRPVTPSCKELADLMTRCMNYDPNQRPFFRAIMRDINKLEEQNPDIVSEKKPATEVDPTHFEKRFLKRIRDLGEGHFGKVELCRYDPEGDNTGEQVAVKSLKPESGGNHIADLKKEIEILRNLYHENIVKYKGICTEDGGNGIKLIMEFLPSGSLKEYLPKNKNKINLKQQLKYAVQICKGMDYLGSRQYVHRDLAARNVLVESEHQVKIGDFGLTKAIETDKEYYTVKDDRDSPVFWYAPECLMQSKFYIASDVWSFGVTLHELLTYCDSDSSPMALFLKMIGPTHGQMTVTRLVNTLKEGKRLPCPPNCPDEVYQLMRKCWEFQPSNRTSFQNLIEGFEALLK
EC50 [µM],Tyk2 selectivity over Jak1,Structure (SMILES)
12.9,88-fold,"COCc1cc(-c2cn(C)c3cnc(NC(C)=O)cc23)nc([C@]2([C@H](C)O)CCOC2)c1 [Example 22.3, N-(3-(6-((R)-3-((S)-1-hydroxyethyl)tetrahydrofuran-3-yl)-4-(methoxymethyl)pyridin-2-yl)-1-methyl-1H-pyrrolo[2,3-c]pyridin-5-yl)acetamide]"
27.2,243-fold,"COCc1cc(-c2cn(C)c3cnc(NC(C)=O)cc23)nc([C@]2([C@@H](C)O)CCOC2)c1 [Example 22.4, N-(3-(6-((R)-3-((R)-1-hydroxyethyl)tetrahydrofuran-3-yl)-4-(methoxymethyl)pyridin-2-yl)-1-methyl-1H-pyrrolo[2,3-c]pyridin-5-yl)acetamide]"
